Assay results taken from patent US6525089B1, “Pharmaceutical composition containing decursin” (Binex Co., Ltd., priority 1998, dated 2003).

Legend:
[1] = system: ICR mice; assay: Urinary test, alloxan-treated mice; type: in vivo; conditions: Alloxan + decursin group (50 mg/kg orally, 10 days)
Procedure: 2 days after ICR mice were given alloxan (75 mg/kg, i.v.), their glucose levels at fasting were measured to select high-glucose mice. The high-glucose mice were divided into two groups; physiological saline solution was given to one group, while decursin was orally administered to the other group at a dose of 50 mg/kg for 10 days. The alloxan-free group was also orally given physiological saline solution for 10 days. The body weighs were checked periodically, together with urinary tests. To isolate their sera and kidney, mice were slightly anesthetized with ether and their abdomens were dissected. The blood samples were collected from heart to isolate the sera. The kidney was perfused with 0.9% NaCl and isolated after removal of the blood. Then the weight of right kidney was measured. Further, to measure the protein amount from the kidney tissues, these tissues were assayed according to the Bradford method using Bio-Rad protein assay kit in the presence of bovine serum albumin as a reference standard. To measure the MDA in the kidney tissues, 0.4 ml of 10% sodium dodecylsulfate was added to 0.5 ml of 10% kidney-tissue homogenization solution and left in water bath at 37° C. for 30 minutes; With the subsequent addition of 0.1N-HCl (2 ml) and 0.67% TBA (1 ml), the mixture was voltexed and left in boiling water bath for 30 minutes. The mixture was further cooled in ice bath for 2˜3 minutes to stop the reaction. Then 2 ml of n-butanol was added to the mixture, stirred well and centrifuged at 3000 rpm for 10 minutes. The supernatant was collected to measure the absorbance at 532 nm. 10 μg/ml tetraethoxypropane (TEP) was employed as a reference standard. To measure the MDA in sera, 0.8% thiobarbituric acid (TBA) was added to 0.5 ml of sera and left in boiling water bath for 30 minutes. The mixture was further cooled in ice bath for 2˜3 minutes to stop the reaction. The supernatant was collected to measure the absorbance at 532 nm. 10 μg/ml TEP was employed as a reference standard.

[2] = system: normal cells (LLC-PK1); assay: Cytotoxicity test on normal cells; type: cell-based; conditions: 3 days
Procedure: To determine the cytotoxicity of decursin on normal cells, they were sub-cultured in a medium-199 containing, 3% fetal bovine serum (FBS), penicillin (100 U/ml) and streptomycin (100 μg/ml) every 3 to 4 day. Then cells were treated with trypsin to prepare a cell suspension. 1 ml of the cell suspension was seeded on 24-well plate at a concentration of 2×10^5 in cells/ml an d attached to the medium for one day. After the supernatant was removed, 1 ml of decursin was added to the cell culture medium at appropriate concentrations and incubated for 3 days to count the cell numbers.

[3] = Body weight, alloxan-treated mice; type: in vivo; conditions: ICR mice, alloxan + decursin 50 mg/kg orally for 10 days
Procedure: 2 days after ICR mice were given alloxan (75 mg/kg, i.v.), their glucose levels at fasting were measured to select high-glucose mice. The high-glucose mice were divided into two groups; physiological saline solution was given to one group, while decursin was orally administered to the other group at a dose of 50 mg/kg for 10 days. The alloxan-free group was also orally given physiological saline solution for 10 days. The body weighs were checked periodically, together with urinary tests. To isolate their sera and kidney, mice were slightly anesthetized with ether and their abdomens were dissected. The blood samples were collected from heart to isolate the sera. The kidney was perfused with 0.9% NaCl and isolated after removal of the blood. Then the weight of right kidney was measured. Further, to measure the protein amount from the kidney tissues, these tissues were assayed according to the Bradford method using Bio-Rad protein assay kit in the presence of bovine serum albumin as a reference standard. […] The supernatant was collected to measure the absorbance at 532 nm. […] The supernatant was collected to measure the absorbance at 532 nm. […]

[4] = system: U-937 cells; assay: Phagocytosis test; type: cell-based, human; conditions: 1 × 10^−7M, incubated 4 days
Procedure: U-937 cells were plated on a cell culture dish at a concentration of 2×10^5 cells/ml in a medium containing 10^−7M decursin and incubated in a 5% CO2 incubator at 37° C.
In the phagocytosis test, 10^6 cells were well stirred and pelleted by centrifugation at 2000 rpm for 5 minutes. 1 ml of 0.2% serum free medium solution in polystyrene particle were added to the pellets, swayed and incubated at 37° C. for 4 hours. After being washed with phosphate buffered saline (PBS) three times, cell pellets were harvested and then about 200 μl of DPBS was added. The solution was lightly swayed and checked under a microscope to observe a minimum number of 200 cells. The number of cells containing the particles was calculated by percentage.
The results of phagocytosis test designed to assess the functional change according to differentiation of U-937 cells was shown in the following Table 8.

[5] = system: SD rats; assay: BUN and creatinine in blood as markers of nephrotoxicity, cisplatin-treated rats; type: in vivo, rat
Procedure: The detailed test methods were summarized hereinafter. BUN (blood urea nitrogen) and creatinine as a marker of nephrotoxicity in the blood, sGPT as a marker of hepatotoxicity, occult blood in the urine, bilirubin, urobilinogen, ketone, protein, nitrite, glucose, pH and specific gravity were determined as follows. […] BUN value was measured using the BUN measurement kit (Youngdong Pharm. Co. Ltd., Korea) in the following procedure. 0.1 ml of urease was added to 20 ml of buffer solution to obtain enzymatic buffer solution. […] The two test tubes were incubated at 37° C. for 15 minutes. Then 2 ml of color-forming solution was added into each test tube and incubated again at 37° C. for 5 minutes. The absorbance was measured at 570 nm to determine the amount of BUN. (2) Measurement of Creatinine Creatinine value was measured using the creatinine measurement kit (Youngdong, Pharm. Co. Ltd., Korea) in the following procedure. 4 ml of tungsten solution was added in 0.5 ml of serum sample to be tested, and stirred vigorously and then left for 10 minutes. […]. Every 3 ml of the supernatant, reference solution of creatinine and distilled water (for blank test) was put to the separate test tubes, followed by the addition of picrate solution (1 ml each). Then 0.5 ml of 1.4N NaOH was added in each tube and stirred to measure the absorbance at 515 nm exactly after the correct lapse of 15 minutes. A total of 10 male SD rats (body weight: 200 g) were used for this experiment. […] The animals were sacrificed and again weighed four days after treatment. […] Blood samples were also taken and left to sit for 30 minutes to isolate the sera, which was used to determine BUN, creatinine and sGPT values as markers of […].

[6] = system: cell lines of uterine cancer, leukemia, hepatoma or large intestine cancer; conditions: cited from earlier work
[7] = post-treated: decursin 17.4 mg/kg i.p. 1, 24, 48 h after cisplatin 5.8 mg/kg i.p.
[8] = pre-treated: decursin 17.4 mg/kg i.p. 1, 24, 48 h prior to cisplatin 5.8 mg/kg i.p.

With `CC(C)=CC(=O)O[C@H]1Cc2cc3ccc(=O)oc3cc2OC1(C)C` [decursin] the “Urinary test Bilirubin: count in category +” value [1] was 2, the “Urinary test Bilirubin: count in category −” value [1] was 8 and the “Urinary test Glucose: count in category +” value [1] was 1. For the same compound, the “Urinary test Glucose: count in category −” value [1] was 9, the “Urinary test Ketone: count in category −” value [1] was 10 and the “Urinary test Nitrite: count in category −” value [1] was 10. For the same compound, the “Urinary test Occult blood: count in category +” value [1] was 2, the “Urinary test Occult blood: count in category −” value [1] was 8 and the “Urinary test Protein: count in category −” value [1] was 10. For the same compound, the “Urinary test Specific gravity: count in category −” value [1] was 10, the “Urinary test Urobilinogen: count in category +” value [1] was 1 and the “Urinary test Urobilinogen: count in category −” value [1] was 9. For the same compound, the “Urinary test pH: count in category −” value [1] was 10, the “Growth inhibition rate (%)” value ([2]; 1 × 10^−6M) was 0.0 ± 0.0% and the “Growth inhibition rate (%)” value ([2]; 1 × 10^−7M) was 0.0 ± 0.0%. The “Growth inhibition rate (%)” value ([2]; 1 × 10^−8M) was 0.0 ± 0.0%, the “Growth inhibition rate (%)” value ([2]; 5 × 10^−7M) was 0.0 ± 0.0% and the “Growth inhibition rate (%)” value ([2]; 5 × 10^−8M) was 0.0 ± 0.0%. For the same compound, the “weight loss of the alloxan-treated group” value [3] was “significantly reduced”, the “Phagocytosis test: cells showing phagocytosis activity” value [4] was 28.6% and the “Phagocytosis test: cells showing phagocytosis activity” value ([4]; listed as Decursin) was 28.6 ± 1.2%. For the same compound, the BUN [5, 7] was 55.2 ± 2.1 mg/dL, the Creatinine [5, 7] was 2.08 ± 0.52 mg/dL and the “reduction of nephrotoxicity (creatinine) compared with the control group receiving cisplatin” value ([5]; post-treatment group) was “about 40%”. The BUN [5, 8] was 17.5 ± 2.8 mg/dL, the Creatinine [5, 8] was 0.74 ± 0.29 mg/dL and the “concentration at which decursin has toxicity on cancer cell lines” value [6] was “more than 10 ppm”.
